Data reported in patent publication US20170150719A1, “FUNGICIDAL PYRAZOLES AND THEIR MIXTURES” (E I DU PONT DE NEMOURS AND COMPANY, priority 2010, published 2017).
Marks after values point to notes of the source that are not given here.

What was measured:
[1] = system: Blumeria graminis f. sp. tritici; assay: Test I: wheat powdery mildew, preventive spray on wheat seedlings, visual disease rating; conditions: for pest or weed control at 200 µg/mL: Blumeria graminis, in Triticum aestivum, read-out: Test I rating (disease control), wheat powdery mildew; for pest or weed control at 200 µg/mL / Test I rating (disease control) / Test I rating (% disease control): 100 = 100% disease control; for pest or weed control at 200 µg/mL / Test I rating (disease control): 0 = no disease control relative to the controls; for Test I rating (% disease control): preventive spray, rating without asterisk
[2] = system: Alternaria solani; assay: Test B: tomato early blight, preventive spray on tomato seedlings, visual disease rating; conditions: for pest or weed control at 200 µg/mL: Alternaria solani, in Solanum lycopersicum, read-out: Test B rating (disease control); for Test B rating (disease control) / Test B rating (% disease control): 100 = 100% disease control; for Test B rating (disease control): 0 = no disease control relative to the controls; for Test B rating (% disease control): preventive spray, rating without asterisk
[3] = system: Septoria nodorum; assay: Test E: Septoria glume blotch, preventive spray on wheat seedlings, visual disease rating; conditions: for pest or weed control at 200 µg/mL: Parastagonospora nodorum, in Triticum aestivum, read-out: Test E rating (disease control), Septoria glume blotch; for pest or weed control at 200 µg/mL / Test E rating (disease control) / Test E rating (% disease control): 100 = 100% disease control; for pest or weed control at 200 µg/mL / Test E rating (disease control): 0 = no disease control relative to the controls; for Test E rating (% disease control): Septoria glume blotch on wheat, preventive spray, rating without asterisk
[4] = system: Botrytis cinerea; assay: Test A: tomato Botrytis, preventive spray on tomato seedlings, visual disease rating; conditions: for pest or weed control at 200 µg/mL: Botrytis cinerea, in Solanum lycopersicum, read-out: Test A rating (disease control), tomato Botrytis; for pest or weed control at 200 µg/mL / Test A rating (disease control) / Test A rating (% disease control): 100 = 100% disease control; for pest or weed control at 200 µg/mL / Test A rating (disease control): 0 = no disease control relative to the controls; for Test A rating (% disease control): preventive spray, 0 = no control relative to controls, rating without asterisk
Description: General protocol for preparing test suspensions for Tests A-I: the test compounds were first dissolved in acetone in an amount equal to 3% of the final volume and then suspended at the desired concentration (in ppm) in acetone and purified water (50/50 mix by volume) containing 250 ppm of the surfactant Trem® 014 (polyhydric alcohol esters). The resulting test suspensions were then used in Tests A-I. Each test was conducted in triplicate, and the results were averaged. Spraying a 200 ppm test suspension to the point of run-off on the test plants was the equivalent of a rate of about 800 g/ha. Unless otherwise indicated, the rating values indicate a 200 ppm test suspension was used. (An asterisk “*” next to the rating value indicates a 40 ppm test suspension was used.)
The test suspension was sprayed to the point of run-off on tomato seedlings. The following day the seedlings were inoculated with a spore suspension of Botrytis cinerea (the causal agent of tomato Botrytis) and incubated in saturated atmosphere at 20° C. for 48 h, and then moved to a growth chamber at 24° C. for 3 additional days, after which time visual disease ratings were made.

[5] = system: Puccinia recondita f. sp. tritici; assay: Test H: wheat leaf rust, preventive spray on wheat seedlings, visual disease rating; conditions: for pest or weed control at 200 µg/mL: read-out: Test H rating (disease control), wheat leaf rust, sprayed the day before inoculation; for pest or weed control at 200 µg/mL / Test H rating (disease control) / Test H rating (% disease control): 100 = 100% disease control; for pest or weed control at 200 µg/mL / Test H rating (disease control): 0 = no disease control; for Test H rating (disease control): sprayed the day before inoculation; for Test H rating (% disease control): preventive spray, rating without asterisk
[6] = system: Septoria tritici; assay: Test F: wheat leaf blotch, preventive spray on wheat seedlings, visual disease rating; format: in vivo; parameters: Test F rating (disease control), value marked *: concentration or dose not given beside the values; conditions: for pest or weed control at 200 µg/mL: Zymoseptoria tritici; for pest or weed control at 200 µg/mL / Test F rating (disease control) / Test F rating (% disease control): 100 = 100% disease control; for pest or weed control at 200 µg/mL / Test F rating (disease control): 0 = no disease control relative to the controls; for Test F rating (% disease control): preventive spray, rating without asterisk
Description: (§1) A hyphen (-) indicates no test results.

[7] = system: Puccinia recondita f. sp. tritici; assay: Test G: wheat leaf rust, spray after inoculation (curative) on wheat seedlings, visual disease rating; format: in vivo; conditions: for pest or weed control at 200 µg/mL / Test G rating (disease control) / Test G rating (% disease control): 100 = 100% disease control; for pest or weed control at 200 µg/mL / Test G rating (disease control): 0 = no disease control; for Test G rating (% disease control): spray after inoculation, rating without asterisk
Description: as §1

Cc1nn(C)c(C(O)c2ccc(F)cc2Cl)c1-c1ccc(F)cc1Cl (stereo not drawn) [Compound 123, α,4-bis(2-chloro-4-fluorophenyl)-1,3-dimethyl-1H-pyrazole-5-methanol]
pest or weed control at 200 µg/mL [1]: 95% | pest or weed control at 200 µg/mL [2]: 86% | pest or weed control at 200 µg/mL [3]: 60% | pest or weed control at 200 µg/mL [4]: 100% | pest or weed control at 200 µg/mL [5]: 100% | pest or weed control at 200 µg/mL [6]: 100% | pest or weed control at 200 µg/mL ([7]; sprayed after inoculation): 6%

Cc1nn(C)c(Nc2ccc(C#N)cc2F)c1-c1ccc(F)cc1F [compound 68]
Test I rating (disease control) ([1]; wheat powdery mildew): 100% | Test B rating (disease control) ([2]; tomato early blight): 51% | Test E rating (disease control) ([3]; Septoria glume blotch): 0% | Test A rating (disease control) ([4]; tomato Botrytis): 99% | Test H rating (disease control) ([5]; wheat leaf rust): 80% | Test F rating (disease control) [6]: 100% | Test G rating (disease control) ([7]; sprayed after inoculation): 0%

Cc1nn(C)c(Oc2ccc(C#N)cc2Cl)c1-c1ccc(F)cc1Cl [Compound 37, 3-chloro-4-[[4-(2-chloro-4-fluorophenyl)-1,3-dimethyl-1H-pyrazol-5-yl]oxy]benzonitrile]
pest or weed control at 200 µg/mL [1]: 100% | pest or weed control at 200 µg/mL [2]: 86% | pest or weed control at 200 µg/mL [3]: 100% | pest or weed control at 200 µg/mL [4]: 100% | pest or weed control at 200 µg/mL [5]: 99% | pest or weed control at 200 µg/mL [6]: 100% | pest or weed control at 200 µg/mL ([7]; sprayed after inoculation): 69%

Cc1nn(C)c(Nc2c(F)cc(Cl)cc2F)c1-c1ccc(C#N)cc1Cl [Compound 111, 3-chloro-4-[5-[(4-chloro-2,6-difluorophenyl)amino]-1,3-dimethyl-1H-pyrazol-4-yl]benzonitrile]
pest or weed control at 200 µg/mL [1]: 99% | pest or weed control at 200 µg/mL [2]: 97% | pest or weed control at 200 µg/mL [3]: 95% | pest or weed control at 200 µg/mL [4]: 100% | pest or weed control at 200 µg/mL [5]: 100% | pest or weed control at 200 µg/mL [6]: 100% | pest or weed control at 200 µg/mL ([7]; sprayed after inoculation): 94%

Cc1nn(C)c(C(O)c2c(F)cc(Cl)cc2F)c1-c1ccc(F)cc1Cl (stereo not drawn) [Compound 148, α-(4-chloro-2,6-difluorophenyl)-4-(2-chloro-4-fluorophenyl)-1,3-dimethyl-1H-pyrazole-5-methanol]
pest or weed control at 200 µg/mL [1]: 64% | pest or weed control at 200 µg/mL [2]: 0% | pest or weed control at 200 µg/mL [3]: 60% | pest or weed control at 200 µg/mL [4]: 100% | pest or weed control at 200 µg/mL [5]: 100% | pest or weed control at 200 µg/mL [6]: 100% | pest or weed control at 200 µg/mL ([7]; sprayed after inoculation): 0%

Cc1nn(C)c(Oc2ccc(C#N)cc2F)c1-c1ccc(F)cc1F [compound 159]
Test I rating (disease control), value marked * ([1]; wheat powdery mildew, rating marked with asterisk (*), not explained in the text shown): 96* % | Test B rating (disease control), value marked * ([2]; tomato early blight, rating marked with asterisk (*), other test condition, not explained in the text shown): 97* % | Test E rating (disease control), value marked * ([3]; Septoria glume blotch, rating marked with asterisk (*), other test condition, not explained in the text shown): 86* % | Test A rating (disease control), value marked * ([4]; tomato Botrytis, rating marked with asterisk (*), other test condition, not explained in the text shown): 100* % | Test H rating (disease control), value marked * ([5]; wheat leaf rust, preventive, rating marked with asterisk (*), not explained in the text shown): 98* % | Test F rating (disease control), value marked * ([6]; rating marked with asterisk (*), other test condition, not explained in the text shown): 100* % | Test G rating (disease control), value marked * ([7]; sprayed after inoculation, rating marked with asterisk (*), not explained in the text shown): 0* %

CCOc1cc(F)c(-c2c(C)nn(C)c2Nc2c(F)cc(Cl)cc2Cl)c(F)c1 [compound 198]
Test I rating (% disease control) ([1]; wheat powdery mildew): 96% | Test B rating (% disease control) ([2]; tomato early blight): 100% | Test E rating (% disease control) [3]: 60% | Test A rating (% disease control) ([4]; tomato Botrytis): 100% | Test H rating (% disease control) ([5]; wheat leaf rust): 80% | Test F rating (% disease control) [6]: 100% | Test G rating (% disease control) [7]: 9%

COc1ccc(-c2c(C)nn(C)c2Nc2c(F)cc(F)cc2Br)c(Cl)c1 [compound 221]
Test I rating (% disease control) ([1]; wheat powdery mildew): 100% | Test B rating (% disease control) ([2]; tomato early blight): 100% | Test E rating (% disease control) [3]: 97% | Test A rating (% disease control) ([4]; tomato Botrytis): 100% | Test H rating (% disease control) ([5]; wheat leaf rust): 99% | Test F rating (% disease control) [6]: 100% | Test G rating (% disease control) [7]: 73%

Cc1nn(C)c(Nc2ccc(F)cc2F)c1-c1ccccc1Cl [compound 97]
Test I rating (disease control) ([1]; wheat powdery mildew): 100% | Test B rating (disease control) ([2]; tomato early blight): 99% | Test E rating (disease control) ([3]; Septoria glume blotch): 0% | Test A rating (disease control) ([4]; tomato Botrytis): 99% | Test H rating (disease control) ([5]; wheat leaf rust): 96% | Test F rating (disease control) [6]: 100% | Test G rating (disease control) ([7]; sprayed after inoculation): 0%

Cc1nn(C)c(Nc2c(F)cccc2F)c1-c1c(F)cccc1F [compound 69]
Test I rating (disease control) ([1]; wheat powdery mildew): 100% | Test B rating (disease control) ([2]; tomato early blight): 99% | Test E rating (disease control) ([3]; Septoria glume blotch): 60% | Test A rating (disease control) ([4]; tomato Botrytis): 100% | Test H rating (disease control) ([5]; wheat leaf rust): 99% | Test F rating (disease control) [6]: 100% | Test G rating (disease control) ([7]; sprayed after inoculation): 0%
